Measured values: patent US20220212192A1, “Microfluidic Device for High-Throughput Screening of Tumor Cell Adhesion and Motility” (Northeastern University, priority 2019, published 2022)

System: 3D NHL spheroids with active immune cells
Experiment: Proteomic analysis of perfusate media from 3D NHL (lymphoma) spheroids on-chip
Format: cell-based
Details: significantly higher than lenalidomide-treated monocultures or spheroids with inactive immune cells, data not shown

SMILES: Nc1cccc2c1CN(C1CCC(=O)NC1=O)C2=O (centres unmarked) [lenalidomide]
- secretion of IL8: increased secretion
- secretion of cytolytic granzyme B: increased secretion
